Measured values from patent US11358931B2, “Selective androgen receptor modulators (SARMs) and uses thereof” (priority 2007, dated 2022).

Assays:
[1] = Pharmacokinetics in Sprague Dawley rats, repeat oral administration for 15 days; assay type: in vivo, rat; settings: for AUC(0-inf) / Cmax / Tmax / half-life / AUC: Sprague-Dawley, rat, plasma, po, SD rats; for AUC: read-out: AUC24
Method: The pharmacokinetics of Compound 102 following repeat oral administration for 15 days was evaluated in Sprague-Dawley rats. A total of 30 rats (15 males and 15 females) were divided into three dose groups (5 males/5 females). Compound 102 was suspended in a vehicle of 2% […]: 0.5% carboxymethyl cellulose (high viscosity) (50:50, v/v) at concentrations of 0.25, 0.75 and 2.5 mg/mL and animals were dosed via oral gavage at 1, 3 and 10 mg/kg once daily for 15 days. Tap water and a diet of rodent chow were provided to the animals ad libitum.
Blood samples were collected on Day 1 and Day 15. Approximately 0.25 mL of blood was collected from each animal via jugular cannula on Day 1 and from tail vein on Day 15. Blood samples were taken 1, 2, 4, 8, 12 and 24 hr postdose. Each blood sample was collected into tubes containing lithium heparin and kept on wet ice pending centrifugation (max 2 hrs). Samples were centrifuged under refrigeration (2°−8° C. at 3000 g) for 10 minutes. Plasma was transferred into a pre-labeled tube (approximately 125 μL) placed on dry ice and stored frozen at −70° C. until analysis.
50 μL of plasma was extracted with 250 μL of acetonitrile and the plasma concentration of Compound 102 was determined by an LC-MS/MS method. The plasma concentration time data were analyzed by a non-compartmental pharmacokinetic method using WinNonlin. The results for pharmacokinetics (Mean±SD, n=5) is shown in Table 3 (Day 1) and Table 4 (Day 15).

[2] = Pharmacokinetics in orchidectomized male rats (plasma, Day 14); assay type: in vivo; settings: rat, ORX male rats; for AUC: male, po; for Cmax / Tmax: PO
Source text: In this assay, two-month old rats were acclimated in a vivarium for one week. After this acclimation period, rats were surgically orchidectomized under isoflurane anesthesia and left untreated for 14 days. After 14 days, animals were sorted into groups such that no statistically significant differences in mean body weights were observed. Rats began receiving treatment 14 days after the day of surgery. Sham-operated and orchidectomized rats, treated with vehicle, served as controls. The different test groups were treated with various doses of Compound 102 (0.03 to 100 mg/kg/day per os (by mouth)). Dosages included 0.03, 0.1, 0.3, 1, 3, 10, 30 and 100 mg/kg/day. Ostarine, a non-steroidal androgenic drug (Evans et al., J Clin Oncology 25: 9119 (2007)) was dosed at dosages similar to other test groups as a comparison. After the 14th dose, venous blood was collected at 0, 1, 2, 4 and 6 hours after dosing. The blood samples were collected in EDTA-containing tubes (Becton Dickinson, Franklin Lakes, N.J.). Approximately 24 hours after the last dose, animals were euthanized and seminal vesicle weights, ventral prostate weights, levator ani weights, preputial gland weights and blood samples were collected on necropsy.
The determination of plasma concentration was done by an LC-MS/MS method. The standard solution of each drug was spiked in blank rat plasma, calibration standards were constructed from 0.0001 μg/mL to 10 μg/mL; and 50 μL of each calibration standard was extracted with 250 μL of acetonitrile containing 10 ng/mL of internal standard in a 96-well plate. Also, 50 μL of plasma sample was extracted with 250 μL of acetonitrile containing internal standard in a 96-well plate.
Peak pharmacokinetic (PK) parameters were calculated and rounded to three decimal places.

[3] = female, 1 mg/kg, oral gavage once daily, Day 15, 1 mg/kg, Female
[4] = female, 1 mg/kg, oral gavage, Day 1, 1 mg/kg, Female
[5] = female, 3 mg/kg, oral gavage once daily, Day 15, 3 mg/kg, Female, n = 3
[6] = female, 3 mg/kg, oral gavage, Day 1, 3 mg/kg, Female
[7] = female, 10 mg/kg, oral gavage once daily, Day 15, 10 mg/kg, Female, n = 4
[8] = female, 10 mg/kg, oral gavage, Day 1, 10 mg/kg, Female
[9] = male, 1 mg/kg, oral gavage once daily, Day 15, 1 mg/kg, Male, n = 4
[10] = male, 1 mg/kg, oral gavage, Day 1, 1 mg/kg, Male
[11] = male, 3 mg/kg, oral gavage once daily, Day 15, 3 mg/kg, Male
[12] = male, 3 mg/kg, oral gavage, Day 1, 3 mg/kg, Male
[13] = male, 10 mg/kg, oral gavage once daily, Day 15, 10 mg/kg, Male, n = 2
[14] = male, 10 mg/kg, oral gavage, Day 1, 10 mg/kg, Male

SMILES: N#Cc1ccc(N2CCC[C@@H]2[C@@H](O)C(F)(F)F)cc1C(F)(F)F [Compound 102, R,R-4-(2-(1-Hydroxyl-2,2,2-trifluoroethyl)-pyrrolidinyl)-2-trifluoromethyl-benzonitrile]
- dose dependence of systemic exposure ([1]; 1, 3 and 10 mg/kg dose levels): dose proportional increase of systemic exposure
- sex difference of systemic exposure ([1]; Day 1 and Day 15): Female rats showed higher systemic exposure than male rats
- AUC(0-inf) [1, 3]: 443 ng·h/mL
- Cmax [1, 3]: 45 ng/mL
- Tmax [1, 3]: 1.8 h
- half-life [1, 3]: 276 min
- AUC [1, 3]: 428 ng·h/mL
- AUC(0-inf) [1, 4]: 436 ng·h/mL
- Cmax [1, 4]: 41 ng/mL
- Tmax [1, 4]: 1.4 h
- half-life [1, 4]: 324 min
- AUC [1, 4]: 413 ng·h/mL
- AUC(0-inf) [1, 5]: 1160 ng·h/mL
- Cmax [1, 5]: 139 ng/mL
- Tmax [1, 5]: 1.8 h
- half-life [1, 5]: 222 min
- AUC [1, 5]: 1000 ng·h/mL
- AUC(0-inf) [1, 6]: 1260 ng·h/mL
- Cmax [1, 6]: 129 ng/mL
- Tmax [1, 6]: 2.6 h
- half-life [1, 6]: 288 min
- AUC [1, 6]: 1210 ng·h/mL
- AUC(0-inf) [1, 7]: 4540 ng·h/mL
- Cmax [1, 7]: 389 ng/mL
- Tmax [1, 7]: 2 h
- half-life [1, 7]: 324 min
- AUC [1, 7]: 4280 ng·h/mL
- AUC(0-inf) [1, 8]: 4210 ng·h/mL
- Cmax [1, 8]: 366 ng/mL
- Tmax [1, 8]: 1.4 h
- half-life [1, 8]: 336 min
- AUC [1, 8]: 3960 ng·h/mL
- AUC(0-inf) [1, 9]: 297 ng·h/mL
- Cmax [1, 9]: 52 ng/mL
- Tmax [1, 9]: 1.3 h
- half-life [1, 9]: 276 min
- AUC [1, 9]: 288 ng·h/mL
- AUC(0-inf) [1, 10]: 1110 ng·h/mL
- Cmax [1, 10]: 14 ng/mL
- Tmax [1, 10]: 1.2 h
- half-life [1, 10]: 312 min
- AUC [1, 10]: 104 ng·h/mL
- AUC(0-inf) [1, 11]: 893 ng·h/mL
- Cmax [1, 11]: 133 ng/mL
- Tmax [1, 11]: 1.2 h
- half-life [1, 11]: 246 min
- AUC [1, 11]: 876 ng·h/mL
- AUC(0-inf) [1, 12]: 341 ng·h/mL
- Cmax [1, 12]: 51 ng/mL
- Tmax [1, 12]: 1.2 h
- half-life [1, 12]: 276 min
- AUC [1, 12]: 318 ng·h/mL
- AUC(0-inf) [1, 13]: 2670 ng·h/mL
- Cmax [1, 13]: 345 ng/mL
- Tmax [1, 13]: 1.5 h
- half-life [1, 13]: 234 min
- AUC [1, 13]: 2620 ng·h/mL
- AUC(0-inf) [1, 14]: 1300 ng·h/mL
- Cmax [1, 14]: 176 ng/mL
- Tmax [1, 14]: 1.2 h
- half-life [1, 14]: 210 min
- AUC [1, 14]: 1290 ng·h/mL
- AUC ([2]; 0.01 mg/kg, Day 14, 0.01 mg/kg, 0 hr conc. substituted for 24 hr, read-out: AUC24): 15 ng·h/mL
- AUC ([2]; 0.01 mg/kg, Day 14, 0.01 mg/kg, read-out: AUC6): 4 ng·h/mL
- AUC ([2]; 0.03 mg/kg, Day 14, 0.03 mg/kg, 0 hr conc. substituted for 24 hr, read-out: AUC24): 5 ng·h/mL
- AUC ([2]; 0.03 mg/kg, Day 14, 0.03 mg/kg, read-out: AUC6): 2 ng·h/mL
- AUC ([2]; 0.3 mg/kg, Day 14, 0.3 mg/kg, 0 hr conc. substituted for 24 hr, read-out: AUC24): 42 ng·h/mL
- AUC ([2]; 0.3 mg/kg, Day 14, 0.3 mg/kg, read-out: AUC6): 18 ng·h/mL
- AUC ([2]; 1 mg/kg, Day 14, 1 mg/kg, 0 hr conc. substituted for 24 hr, read-out: AUC24): 123 ng·h/mL
- AUC ([2]; 1 mg/kg, Day 14, 1 mg/kg, read-out: AUC6): 63 ng·h/mL
- AUC ([2]; 3 mg/kg, Day 14, 3 mg/kg, 0 hr conc. substituted for 24 hr, read-out: AUC24): 234 ng·h/mL
- AUC ([2]; 3 mg/kg, Day 14, 3 mg/kg, read-out: AUC6): 113 ng·h/mL
- AUC ([2]; 10 mg/kg, Day 14, 10 mg/kg, 0 hr conc. substituted for 24 hr, read-out: AUC24): 764 ng·h/mL
- AUC ([2]; 10 mg/kg, Day 14, 10 mg/kg, read-out: AUC6): 370 ng·h/mL
- AUC ([2]; 30 mg/kg, Day 14, 30 mg/kg, 0 hr conc. substituted for 24 hr, read-out: AUC24): 1880 ng·h/mL
- AUC ([2]; 30 mg/kg, Day 14, 30 mg/kg, read-out: AUC6): 645 ng·h/mL
- AUC ([2]; 100 mg/kg, Day 14, 100 mg/kg, 0 hr conc. substituted for 24 hr, read-out: AUC24): 4050 ng·h/mL
- AUC ([2]; 100 mg/kg, Day 14, 100 mg/kg, read-out: AUC6): 998 ng·h/mL
- Cmax ([2]; Day 14, 0.01 mg/kg): 2 ng/mL
- Tmax ([2]; Day 14, 0.01 mg/kg): 2.8 h
- Cmax ([2]; Day 14, 0.03 mg/kg): 1 ng/mL
- Tmax ([2]; Day 14, 0.03 mg/kg): 2 h
- Cmax ([2]; Day 14, 0.3 mg/kg): 12 ng/mL
- Tmax ([2]; Day 14, 0.3 mg/kg): 1.3 h
- Cmax ([2]; Day 14, 1 mg/kg): 18 ng/mL
- Tmax ([2]; Day 14, 1 mg/kg): 2.5 h
- Cmax ([2]; Day 14, 3 mg/kg): 36 ng/mL
- Tmax ([2]; Day 14, 3 mg/kg): 1.3 h
- Cmax ([2]; Day 14, 10 mg/kg): 111 ng/mL
- Tmax ([2]; Day 14, 10 mg/kg): 1.8 h
- Cmax ([2]; Day 14, 30 mg/kg): 205 ng/mL
- Tmax ([2]; Day 14, 30 mg/kg): 4.3 h
- Cmax ([2]; Day 14, 100 mg/kg): 321 ng/mL
- Tmax ([2]; Day 14, 100 mg/kg): 3.5 h
